Data reported in patent publication US20130045995A1 (priority 2010, published 2013).
Where two headings read alike, the source gives them in different places.

How the values were obtained:
Phytophthora infestans = type: in vivo; settings: 500 ppm of active ingredient; tomato, preventive; evaluated 7 days after inoculation
[1] = Measurement of logP values by HPLC on reversed phase columns (EEC directive 79/831 Annex V.A8); type: physicochemical; settings: for Log P: pH 2.7, 0.1% formic acid in water / acetonitrile; for chromatographic logP: reversed-phase HPLC column
Protocol: Measurement of logP values was performed according EEC directive 79/831 Annex V.A8 by HPLC (High Performance Liquid Chromatography) on reversed phase columns with the following methods: […]

Plasmopara viticola = experiment: Plasmopara test (grapevines) / preventive; type: in vivo; settings: 100 ppm of active ingredient, evaluated 6 days after inoculation
Protocol: • Plasmopara Test (Grapevines)/Preventive
Solvent: 24.5 parts by weight of acetone • 24.5 parts by weight of dimethylacetamide
Emulsifier: 1 part by weight of alkylaryl polyglycol ether
To produce a suitable preparation of active compound, 1 part by weight of active compound is mixed with the stated amounts of solvent and emulsifier, and the concentrate is diluted with water to the desired concentration.
To test for preventive activity, young plants are sprayed with the preparation of active compound at the stated rate of application. After the spray coating has dried on, the plants are inoculated with an aqueous spore suspension of Plasmopara viticola and then remain for 1 day in an incubation cabinet at approximately 20° C. and a relative atmospheric humidity of 100%. The plant is subsequently placed for 4 days in a greenhouse at approximately 21° C. and a relative atmospheric humidity of approximately 90%. The plants are then misted and placed for 1 day in an incubation cabinet.
The test is evaluated 6 days after the inoculation. 0% means an efficacy which corresponds to that of the untreated control, while an efficacy of 100% means that no disease is observed.

Row | SMILES | efficacy (Phytophthora infestans) | other results
1 | Cc1snnc1C(=NOCc1csc(NC(=O)C2CC(=O)c3cc(F)ccc3O2)n1)c1ccccc1 (mixture of isomers) [Example 7] | 98% | Log P ([1]; HPLC): 3.72
2 | Cc1snnc1C(=NOCc1csc(NC(=O)C2CN(C)c3ccccc3O2)n1)c1ccccc1 (racemic) [Example 17] | 97% | 
3 | Cc1snnc1C(=NOCc1cccc(NC(=O)C2CN(C)c3ccccc3O2)n1)c1ccccc1 (racemic) [Example 18] | 100% | Log P ([1]; HPLC): 4.56
4 | Cc1snnc1C(=NOCc1csc(NC(=O)C2Cc3ccccc3O2)n1)c1ccccc1 (racemic) [Example 3] | 100% | 
5 | Cc1snnc1C(=NOCc1cccc(NC(=O)C2Cc3ccccc3O2)n1)c1ccccc1 (racemic) [Example 15] | 100% | efficacy (Plasmopara viticola): 74%
6 | Cc1cccc2c1OC(C(=O)Nc1nc(CON=C(c3ccccc3)c3nnsc3C)cs1)CO2 (racemic) [Example 5] | 100% | 
7 | Cc1snnc1C(=NOCc1cccc(NC(=O)C2CCc3ccccc3O2)n1)c1ccccc1 (racemic) [Example 14] | 97% | Log P ([1]; HPLC): 4.66
8 | Cc1snnc1C(=NOCc1cccc(NC(=O)C2CC(=O)c3cc(F)ccc3O2)n1)c1ccccc1 (mixture of isomers) [Example 16] | 95% | 
9 | Cc1snnc1C(=NOCc1csc(NC(=O)C2COc3ccccc3O2)n1)c1ccccc1 (racemic) [Example 6] | 100% | efficacy (Plasmopara viticola): 77%
10 | Cc1cccc2c1OC(C(=O)Nc1cccc(CON=C(c3ccccc3)c3nnsc3C)n1)CO2 (racemic) [Example 12] | 95% | Log P ([1]; HPLC): 4.73
11 | Cc1snnc1C(=NOCc1csc(NC(=O)C2CCc3ccccc3O2)n1)c1ccccc1 (racemic) [Example 2] | 100% | 
12 | Cc1snnc1C(=NOCc1csc(NC(=O)C2COc3ccccc3O2)n1)c1ccccc1 (stereo not drawn) [Example 1, N-{4-[({[(5-methyl-1,2,3-thiadiazol-4-yl)(phenyl)methylene]amino}oxy)methyl]-1,3-thiazol-2-yl}-2,3-dihydro-1,4-benzodioxine-2-carboxamide] | 100% | chromatographic logP ([1]; pH 2.7, [I1] main isomer, HPLC, pH 2.7, 0.1% formic acid, read-out: Log P): 3.99; chromatographic logP ([1]; pH 2.7, mixture of Z and E diastereoisomers, two values, read-out: logP(HCOOH)): 3.99; efficacy (Plasmopara viticola): 94%
13 | Cc1snnc1C(=NOCc1cccc(NC(=O)C2COc3ccccc3O2)n1)c1ccccc1 (racemic) [Example 13] | 100% | 
14 | Cc1snnc1C(=NOCc1cccc(NC(=O)C2COc3ccccc3O2)n1)c1ccccc1 (mixture of isomers) [Example 10] | 95% | efficacy (Plasmopara viticola): 98%
